# From patent US4272437A, “Antibacterial agents, and 4-thio azetidinone intermediates” (priority 1979, dated 1981)
# Where two headings read alike, the source gives them in different places.
# Experiments:
# [1] = system: Str. pneumoniae A-9585; test: MIC, tube dilution, Streptococcus pneumoniae A9585; type: cell-based; conditions: overnight 37° C., Nutrient Broth; for MIC: Streptococcus pneumoniae, A9585, Str. pneumoniae A9585, read-out: Minimum Inhibitory Concentration (M.I.C.)
# Description: (§1) Representative compounds of the present invention were subjected to in vitro antibiotic screening against a variety of microorganisms.
# [2] = system: Str. pyogenes A-9604; test: MIC, tube dilution, Streptococcus pyogenes A9604; type: cell-based; conditions: overnight 37° C., Nutrient Broth; for MIC: Streptococcus pyogenes, A9604, Str. pyogenes A9604, read-out: Minimum Inhibitory Concentration (M.I.C.)
# Description: as §1
# [3] = system: Staph. aureus A-9537; test: MIC, tube dilution, Staphylococcus aureus A9537; type: cell-based; conditions: overnight 37° C., Nutrient Broth; for MIC: Staphylococcus aureus, A9537, Staph. aureus A9537, read-out: Minimum Inhibitory Concentration (M.I.C.)
# Description: as §1
# [4] = system: Staph. aureus A-9537 and 50% serum; test: MIC, tube dilution, Staph. aureus A9537 + 50% serum; type: cell-based, Staphylococcus aureus; conditions: overnight 37° C.; for MIC: Staphylococcus aureus, read-out: Minimum Inhibitory Concentration (M.I.C.)
# Description: as §1
# [5] = system: Staph. aureus (Pen-Res) A-9606; test: MIC, tube dilution, Staphylococcus aureus A9606 (Pen-Res); type: cell-based; conditions: Staph. aureus A9606 (Pen-Res), overnight 37° C.; for MIC: Staphylococcus aureus, read-out: Minimum Inhibitory Concentration (M.I.C.)
# Description: as §1
# [6] = system: Staph. aureus (Meth-Res) A-15097; test: MIC, tube dilution, Staphylococcus aureus A15097 (Meth-Res); type: cell-based; conditions: Staph. aureus A15097 (Meth-Res), overnight 37° C.; for MIC: Staphylococcus aureus, read-out: Minimum Inhibitory Concentration (M.I.C.)
# Description: as §1
# [7] = system: Str. faecalis A-20688; test: MIC, tube dilution, Streptococcus faecalis A20688; type: cell-based; conditions: overnight 37° C.; for MIC: Enterococcus faecalis, A20688, Str. faecalis A20688, read-out: Minimum Inhibitory Concentration (M.I.C.)
# Description: as §1
# [8] = system: E. coli A-15119; test: MIC, tube dilution, Escherichia coli A15119; type: cell-based; conditions: overnight 37° C.; for MIC: Escherichia coli, A15119, E. coli A15119, read-out: Minimum Inhibitory Concentration (M.I.C.)
# Description: as §1
# [9] = system: E. coli A-20341-1; test: MIC, tube dilution, Escherichia coli A20341-1; type: cell-based
# Description: as §1
# [10] = system: K. pneumoniae A-15130; test: MIC, tube dilution, Klebsiella pneumoniae A15130; type: cell-based; conditions: overnight 37° C.; for MIC: Klebsiella pneumoniae, A15130, K. pneumoniae A15130, read-out: Minimum Inhibitory Concentration (M.I.C.)
# Description: as §1
# [11] = system: Klebsiella species A20468; test: MIC, tube dilution, Klebsiella species A20468; type: cell-based; conditions: Klebsiella species (K. pneumoniae) A20468, overnight 37° C.; for MIC: read-out: Minimum Inhibitory Concentration (M.I.C.)
# Description: as §1
# [12] = system: Pr. mirabilis A-9900; test: MIC, tube dilution, Proteus mirabilis A9900; type: cell-based; conditions: overnight 37° C.; for MIC: Proteus mirabilis, A9900, Proteus mirabilis A9900, read-out: Minimum Inhibitory Concentration (M.I.C.)
# Description: as §1
# [13] = system: Pr. morganii A-15153; test: MIC, tube dilution, Proteus morganii A15153; type: cell-based; conditions: overnight 37° C.; for MIC: Morganella morganii, A15153, Proteus morganii A15153, read-out: Minimum Inhibitory Concentration (M.I.C.)
# Description: as §1
# [14] = system: Ser. marcescens A-20019; test: MIC, tube dilution, Serratia marcescens A20019; type: cell-based; conditions: overnight 37° C.; for MIC: Serratia marcescens, A20019, Serratia marcescens A20019, read-out: Minimum Inhibitory Concentration (M.I.C.)
# Description: as §1
# [15] = system: Ent. cloacae A-9659; test: MIC, tube dilution, Enterobacter cloacae A9659; type: cell-based; conditions: overnight 37° C.; for MIC: Enterobacter cloacae, A9659, Enterobacter cloacae A9659, read-out: Minimum Inhibitory Concentration (M.I.C.)
# Description: as §1
# [16] = system: Ent. cloacae A-9656; test: MIC, tube dilution, Enterobacter cloacae A9656; type: cell-based; conditions: overnight 37° C.; for MIC: read-out: Minimum Inhibitory Concentration (M.I.C.)
# Description: as §1
# [17] = system: Ps. aeruginosa A-9843A; test: MIC, tube dilution, Pseudomonas aeruginosa A9843A; type: cell-based; conditions: overnight 37° C.; for MIC: Pseudomonas aeruginosa, A9843A, read-out: Minimum Inhibitory Concentration (M.I.C.), Pseudomonas aeruginosa A9843A
# Description: as §1
# [18] = system: Ps. aeruginosa A-21213; test: MIC, tube dilution, Pseudomonas aeruginosa A21213; type: cell-based; conditions: overnight 37° C.; for MIC: read-out: Minimum Inhibitory Concentration (M.I.C.)
# Description: as §1
# [19] = system: Proteus rettgeri A21203; test: MIC, tube dilution, Proteus rettgeri A21203; type: cell-based; conditions: overnight 37° C.; for MIC: Providencia rettgeri, read-out: Minimum Inhibitory Concentration (M.I.C.)
# Description: as §1
# [20] = system: Proteus vulgaris A21559; test: MIC, tube dilution, Proteus vulgaris A21559; type: cell-based; conditions: for MIC: Proteus vulgaris
# Description: as §1
# [21] = Escherichia coli, A203411, E. coli A20341-1; overnight 37° C.; read-out: Minimum Inhibitory Concentration (M.I.C.)
# [22] = Enterobacter cloacae, A9656, Enterobacter cloacae A9656
# [23] = Pseudomonas aeruginosa, A21213, Pseudomonas aeruginosa A21213
# [24] = A21203, Proteus rettgeri A21203
# [25] = A21559, Proteus vulgaris A21559, overnight 37° C., read-out: Minimum Inhibitory Concentration (M.I.C.)
SMILES,MIC [1],MIC [2],MIC [3],MIC [4],MIC [5],MIC [6],MIC [7],MIC [8],"MIC [9, 21]",MIC [10],MIC [11],MIC [12],MIC [13],MIC [14],MIC [15],"MIC [16, 22]",MIC [17],"MIC [18, 23]","MIC [19, 24]","MIC [20, 25]",also measured
"NC1CCC(C2=C(C(=O)O)N3C(=O)C[C@H]3S2)C1 (single isomer, unassigned) [98 isomer C, 2-(3-Aminocyclopentyl)-penem-3-carboxylic acid]",–,–,–,–,–,–,–,–,–,–,–,–,–,–,–,–,–,–,–,–,"Minimum Inhibitory Concentration (M.I.C.) ([1]; Str. pneumoniae A9585): .06 µg/mL; Minimum Inhibitory Concentration (M.I.C.) ([2]; Str. pyogenes A9604): .06 µg/mL; Minimum Inhibitory Concentration (M.I.C.) ([3]; Staph. aureus A9537): .13 µg/mL; Minimum Inhibitory Concentration (M.I.C.) [4]: 4 µg/mL; Minimum Inhibitory Concentration (M.I.C.) [5]: > 63 µg/mL; Minimum Inhibitory Concentration (M.I.C.) [6]: > 63 µg/mL; Minimum Inhibitory Concentration (M.I.C.) ([7]; Str. faecalis A20688): 32 µg/mL; Minimum Inhibitory Concentration (M.I.C.) ([8]; E. coli A15119): 2 µg/mL; Minimum Inhibitory Concentration (M.I.C.) ([9]; E. coli A20341-1; overnight 37° C.): 16 µg/mL; Minimum Inhibitory Concentration (M.I.C.) ([10]; K. pneumoniae A15130): 8 µg/mL; Minimum Inhibitory Concentration (M.I.C.) [11]: > 63 µg/mL; Minimum Inhibitory Concentration (M.I.C.) ([12]; Proteus mirabilis A9900): 8 µg/mL; Minimum Inhibitory Concentration (M.I.C.) ([13]; Proteus morganii A15153): 16 µg/mL; Minimum Inhibitory Concentration (M.I.C.) ([14]; Serratia marcescens A20019): 8 µg/mL; Minimum Inhibitory Concentration (M.I.C.) ([15]; Enterobacter cloacae A9659): 16 µg/mL; Minimum Inhibitory Concentration (M.I.C.) ([16]; Enterobacter cloacae A9656): 8 µg/mL; Minimum Inhibitory Concentration (M.I.C.) ([17]; Pseudomonas aeruginosa A9843A): 32 µg/mL; Minimum Inhibitory Concentration (M.I.C.) ([18]; Pseudomonas aeruginosa A21213): > 63 µg/mL; Minimum Inhibitory Concentration (M.I.C.) ([19]; Proteus rettgeri A21203): 4 µg/mL; Minimum Inhibitory Concentration (M.I.C.) ([20]; Proteus vulgaris A21559, overnight 37° C.): 16 µg/mL"
CC(N)=NCC1=C(C(=O)O)N2C(=O)CC2S1 (centres unmarked) [16 (5)],1 µg/mL,2 µg/mL,4 µg/mL,32 µg/mL,32 µg/mL,63 µg/mL,> 63 µg/mL,16 µg/mL,> 63 µg/mL,63 µg/mL,> 63 µg/mL,8 µg/mL,16 µg/mL,32 µg/mL,63 µg/mL,63 µg/mL,16 µg/mL,32 µg/mL,32 µg/mL,63 µg/mL,–
NC=NCC1=C(C(=O)O)N2C(=O)CC2S1 (centres unmarked) [16 (6)],2 µg/mL,4 µg/mL,4 µg/mL,63 µg/mL,125 µg/mL,63 µg/mL,125 µg/mL,16 µg/mL,125 µg/mL,125 µg/mL,> 125 µg/mL,16 µg/mL,32 µg/mL,63 µg/mL,63 µg/mL,63 µg/mL,32 µg/mL,> 125 µg/mL,32 µg/mL,32 µg/mL,–
"CC(N)C1=C(C(=O)O)N2C(=O)CC2S1 (centres unmarked) [Example 72, 2-(1'-Aminoethyl)-penem-3-carboxylic Acid]",1 µg/mL,2 µg/mL,4 µg/mL,63 µg/mL,32 µg/mL,63 µg/mL,> 125 µg/mL,125 µg/mL,–,> 125 µg/mL,> 125 µg/mL,125 µg/mL,> 125 µg/mL,> 125 µg/mL,> 125 µg/mL,–,> 125 µg/mL,–,–,–,"MIC ([9]; Escherichia coli, A203411; E. coli A20341-1; overnight 37° C.; read-out: Minimum Inhibitory Concentration (M.I.C.)): > 125 µg/mL; MIC ([16]; Enterobacter cloacae A9656): > 125 µg/mL; MIC ([18]; Pseudomonas aeruginosa A21213): > 125 µg/mL; MIC ([19]; Proteus rettgeri A21203): 125 µg/mL; MIC ([20]; A21559, read-out: Minimum Inhibitory Concentration (M.I.C.)): 125 µg/mL"
